The results in this text go back to patent publication US20170209499A1, “Propolis and Extracts Thereof for the Treatment of Skin Cancers and Improvement of Skin Health” (Manuka Health New Zealand Limited, priority 2014, published 2017).

The experiment has as its system human melanoma cell line A-2058. In words: MTT cell proliferation assay, human melanoma cell line A-2058. The following applies: for Mean OD: MTT Optical Density at 570 nm. It is filed as cell-based. An excerpt:
This example describes the in vitro bioassay used for determining the anti-proliferative activity of test compounds and cyclodextrin-encapsulated propolis complexes against human skin cancer cell lines. The present example tests anti-proliferative efficacy against the human melanoma cell line, A-2058. The cyclodextrin-encapsulated propolis complexes tested are those described in Example 1. The NZ propolis was the same propolis used to manufacture the cyclodextrin complexes CD1-CD3. The Brazilian Green propolis was the same propolis used to manufacture the cyclodextrin complex CD4. The test samples were dissolved in 15% Ethanol (EtOH)/HBSS to make a working solution, which was then diluted 10 times to give a final concentration in the cells of 50 μg/ml unless indicated otherwise.
The three human skin cancer cell lines were: • 1) Human Melanoma cell line (A-2058). • 2) Human Epidermoid (Squamous) Carcinoma cell line (A-431). • 3) Human Basal Cell Carcinoma cell line (TE 354.T).
The cell lines were revived from cryostorage and cultured in the presence of the test and reference samples. An MIT assay was then performed on the cultures to determine the effect of the samples on the cell viability and proliferation. The percentage standard error of the mean was assessed and extreme outliers were removed if the SEM%>15. Preliminary statistical significance was assessed with an independent Student t-test at α<0.05 (with and without outliers). The methodology was based on the procedures reported by: • Ahn, N G, Campbell J S (1993). […] Proc Natl Acad Sci. 90: 5143-5147. • Galan-Cobo, A et al (2014). Functional inhibition of aquaporin-3 with a gold-based compound induces blockage of cell proliferation. J Cellul. Physiol. 229: 1787-1801. • Roomi, M W, Kalinovsky, J et al (2013) Effect of a nutrient mixture on matrix metalloproteinase-9 dimers in various human cancer cell lines. Inter 3 Oncol. 44: 936-942. • Huang, H C, Lin, M K et al (2013). Cardenolides and bufadienolide glycosides from Kalanchoe tubiflora and evaluation of cytotoxicity. Planta Medica. 79: 1362-1369. • Tilli, C M L J, Stavast-Kooy, A J W et al (2003). The garlic-derived organosulfur component ajoene decreases basal cell carcinoma tumor size by inducing apoptosis. Arch Dermatol Res. 295: 117-123.
• 1. Human melanoma cell line (A-2058, ATCC CRL11147) was obtained from ATCC, Bethesda, Md., USA. • 2. Human squamous (epidermoid) carcinoma cell line (A-431, ATCC CRL1555) was obtained from ATCC, Bethesda, Md. USA. • 3. Human basal cell carcinoma cell line (TE 354.T, ATCC CRL7762) was obtained from ATCC, Bethesda, Md., USA. • 4. Dulbecco's Modified Eagle's Medium (DMEM) was obtained from GIBCO (12100-038). 10% Foetal Bovine Serum (FBS), 100 U/ml Penicillin and […] Streptomycin were added before use. • 5. Penicillin-streptomycin solution, stored at −20° C. consisting of 10000 units/ml penicillin and 10 mg/ml streptomycin in 0.9% NaCl was obtained from Sigma (#P-0781). • 6. Trypsin-EDTA solution consisting of 0.25% Trypsin/EDTA was obtained from Invitrogen (#15400054). • 7. Phosphate buffered saline (PBS) was prepared in-house. • 8. Hanks Balanced Salt Solution (HBSS), stored at 4° C. was obtained from GIBCO (#14185-052). • 9. Foetal Bovine Serum (FBS) stored at −20° C. was obtained from GIBCO (#10091-148). • 10. MTT Reagent, 100 mg/vial, was obtained from Sigma (M-2128) and then dissolved in PBS at 10 mg/ml and stored at −20° C. A 5 mg/ml MTT solution was prepared in PBS and stored at 4° C. as the working solution. • 11. MU lysis buffer: 10% sodium dodecyl sulphate (SDS)/45% Dimethyl Formamide was prepared by dissolving 20 g SDS in 100 ml of double-distilled water (DDW), and then adding 90 ml of Dimethyl Formamide to the solution. The pH was adjusted to 4.7 by glacial acetic acid, and DDW added up to a final volume of 200 ml. • 12. 5-Fluorouracil (5-FU) was supplied by Sigma (F-6627). Three working solutions were prepared at 19.5 μg/ml. 6.5 μg/ml and 1.95 μg/ml dissolved in 15% Ethanol/HBSS. […]

On to `O=c1[nH]cc(F)c(=O)[nH]1` [5-fluorouracil, reference compound], for which the “Mean OD” value (A-2058, 0.195 μg/ml) is given as 0.1937; the “Mean OD” value (A-2058, 0.65 μg/ml) amounted to 0.1832; the “Mean OD” value (A-2058, 1.95 μg/ml) turned out to be 0.1847. Besides, at 0.195 µg/mL the inhibition (Homo sapiens, A2058, 24 h, A-2058, final conc. 0.195 μg/ml, 24 hr incubation, vs cells only) was 3.73%. The inhibition at 0.65 µg/mL (Homo sapiens, A2058, 24 h, A-2058, final conc. 0.65 μg/ml, 24 hr incubation, vs cells only) came out at 8.99%. For the setting “Homo sapiens, A2058, 24 h, A-2058, final conc. 1.95 μg/ml, 24 hr incubation, vs cells only”, this compound showed an inhibition at 1.95 µg/mL of 8.25%.
